Experimental data: PMC12798769, “GArNet: A Genetic Algorithm-Based Protein Redesign Approach to Optimize Mutation Combinations Informed by Network Theory” (Journal of Chemical Information and Modeling, 2025)

Columns and labels:
[1] = target: T1, CnTDH (Cupriavidus necator, UniProt Q0K312, N14C/R31N/A62E/A160N/H177Y/A291K/A310K, form not given); experiment: NADH formation at […] nm, Michaelis-Menten fit; format: biochemical; settings: 0.1 M Gly-KOH pH 10.0; 2.5 mM NAD+; 0.0-40 mM L-threonine
T1 construct: gene H16_B0820; recombinant in E. coli BL21(DE3), His-tag (HisTrap; pET15b NdeI/BamHI for the designed variants), size-exclusion purified

[2] = target: T2, CnTDH (Cupriavidus necator, UniProt Q0K312, V11I/R67K/G69K/G263D/Q265E/D282Q, form not given); experiment: NADH formation at […] nm, Michaelis-Menten fit; format: biochemical; settings: 0.1 M Gly-KOH pH 10.0; 2.5 mM NAD+; 0.0-40 mM L-threonine
T2 construct: gene H16_B0820; recombinant in E. coli BL21(DE3), His-tag (HisTrap; pET15b NdeI/BamHI for the designed variants), size-exclusion purified

Km [1]: 17.4 ± 1.9 mM
Km [2]: 11.6 ± 1.4 mM
Compound: C[C@@H](O)[C@H](N)C(=O)O [L-threonine]
